According to PMC2873968, “Novel protein kinase D inhibitors cause potent arrest in prostate cancer cell growth and motility” (BMC Chemical Biology, 2010):

Legend:
[1] = molecular target: T1, PKCβI (Homo sapiens, UniProt P05771); design: method as in PMID 18829454; details: previously reported; cited from earlier work
T1 construct: purchased Cell Signaling Technology

[2] = molecular target: CHK1 (Homo sapiens, UniProt O14757); test: Kinase profiling, single-dose in vitro kinase assay (Caliper Life Sciences); details: read-out: Average % Inhibition CHK1
Sequence of CHK1 (O14757 whole entry): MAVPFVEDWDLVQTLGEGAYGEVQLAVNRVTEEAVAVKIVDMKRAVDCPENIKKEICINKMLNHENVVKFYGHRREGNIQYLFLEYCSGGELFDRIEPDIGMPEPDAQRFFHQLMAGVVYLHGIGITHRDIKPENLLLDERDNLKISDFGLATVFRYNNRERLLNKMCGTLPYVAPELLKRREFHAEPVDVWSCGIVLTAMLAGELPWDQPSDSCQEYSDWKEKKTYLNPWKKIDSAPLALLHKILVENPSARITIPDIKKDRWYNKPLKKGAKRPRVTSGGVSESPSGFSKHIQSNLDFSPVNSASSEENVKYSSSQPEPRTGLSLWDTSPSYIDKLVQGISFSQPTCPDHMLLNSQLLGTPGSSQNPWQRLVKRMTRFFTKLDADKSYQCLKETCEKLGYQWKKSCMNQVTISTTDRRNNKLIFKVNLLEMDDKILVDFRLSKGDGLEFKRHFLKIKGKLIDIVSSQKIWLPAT

[3] = molecular target: MET (Homo sapiens, UniProt P08581); test: as above; details: read-out: Average % Inhibition MET
Sequence of MET (P08581 25-1390): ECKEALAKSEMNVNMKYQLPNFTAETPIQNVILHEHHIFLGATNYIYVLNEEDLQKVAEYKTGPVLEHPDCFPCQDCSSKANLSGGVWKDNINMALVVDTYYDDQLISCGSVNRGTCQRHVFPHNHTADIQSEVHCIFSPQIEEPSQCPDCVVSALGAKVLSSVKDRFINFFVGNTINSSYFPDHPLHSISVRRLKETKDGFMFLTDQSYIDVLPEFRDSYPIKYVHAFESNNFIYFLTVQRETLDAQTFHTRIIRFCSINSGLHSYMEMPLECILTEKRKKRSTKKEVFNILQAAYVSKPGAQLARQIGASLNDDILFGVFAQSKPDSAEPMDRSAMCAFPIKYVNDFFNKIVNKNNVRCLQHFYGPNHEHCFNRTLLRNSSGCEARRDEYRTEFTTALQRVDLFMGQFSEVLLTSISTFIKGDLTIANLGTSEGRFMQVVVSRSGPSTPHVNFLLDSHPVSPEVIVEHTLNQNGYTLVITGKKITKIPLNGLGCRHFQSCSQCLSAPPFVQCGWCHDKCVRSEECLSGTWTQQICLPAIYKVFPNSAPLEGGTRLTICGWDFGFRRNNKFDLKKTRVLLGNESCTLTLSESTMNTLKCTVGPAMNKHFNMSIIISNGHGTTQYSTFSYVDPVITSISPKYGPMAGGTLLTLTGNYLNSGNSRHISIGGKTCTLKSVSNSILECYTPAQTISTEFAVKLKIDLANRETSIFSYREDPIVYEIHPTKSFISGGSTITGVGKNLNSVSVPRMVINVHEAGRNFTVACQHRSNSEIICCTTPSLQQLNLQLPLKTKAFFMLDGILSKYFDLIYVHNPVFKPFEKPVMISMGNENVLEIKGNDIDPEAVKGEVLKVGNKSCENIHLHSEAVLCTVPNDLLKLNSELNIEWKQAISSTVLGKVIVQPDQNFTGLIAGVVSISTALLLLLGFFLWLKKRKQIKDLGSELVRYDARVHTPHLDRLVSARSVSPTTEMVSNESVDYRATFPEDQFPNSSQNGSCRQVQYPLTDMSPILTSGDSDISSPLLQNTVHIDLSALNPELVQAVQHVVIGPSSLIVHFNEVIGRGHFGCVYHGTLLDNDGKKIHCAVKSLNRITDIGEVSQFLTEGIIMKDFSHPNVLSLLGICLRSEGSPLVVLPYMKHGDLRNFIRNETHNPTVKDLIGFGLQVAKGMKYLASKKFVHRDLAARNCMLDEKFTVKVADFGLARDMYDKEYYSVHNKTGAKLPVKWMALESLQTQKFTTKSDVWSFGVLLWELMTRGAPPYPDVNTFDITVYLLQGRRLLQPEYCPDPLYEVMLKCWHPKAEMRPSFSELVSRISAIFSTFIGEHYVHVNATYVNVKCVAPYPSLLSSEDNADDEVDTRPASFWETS

[4] = molecular target: PKCθ (Homo sapiens, UniProt Q04759); test: as above; details: read-out: Average % Inhibition PKCθ
[5] = molecular target: ABL (Homo sapiens, UniProt P00519); test: as above; details: read-out: Average % Inhibition ABL
Sequence of ABL (P00519 whole entry): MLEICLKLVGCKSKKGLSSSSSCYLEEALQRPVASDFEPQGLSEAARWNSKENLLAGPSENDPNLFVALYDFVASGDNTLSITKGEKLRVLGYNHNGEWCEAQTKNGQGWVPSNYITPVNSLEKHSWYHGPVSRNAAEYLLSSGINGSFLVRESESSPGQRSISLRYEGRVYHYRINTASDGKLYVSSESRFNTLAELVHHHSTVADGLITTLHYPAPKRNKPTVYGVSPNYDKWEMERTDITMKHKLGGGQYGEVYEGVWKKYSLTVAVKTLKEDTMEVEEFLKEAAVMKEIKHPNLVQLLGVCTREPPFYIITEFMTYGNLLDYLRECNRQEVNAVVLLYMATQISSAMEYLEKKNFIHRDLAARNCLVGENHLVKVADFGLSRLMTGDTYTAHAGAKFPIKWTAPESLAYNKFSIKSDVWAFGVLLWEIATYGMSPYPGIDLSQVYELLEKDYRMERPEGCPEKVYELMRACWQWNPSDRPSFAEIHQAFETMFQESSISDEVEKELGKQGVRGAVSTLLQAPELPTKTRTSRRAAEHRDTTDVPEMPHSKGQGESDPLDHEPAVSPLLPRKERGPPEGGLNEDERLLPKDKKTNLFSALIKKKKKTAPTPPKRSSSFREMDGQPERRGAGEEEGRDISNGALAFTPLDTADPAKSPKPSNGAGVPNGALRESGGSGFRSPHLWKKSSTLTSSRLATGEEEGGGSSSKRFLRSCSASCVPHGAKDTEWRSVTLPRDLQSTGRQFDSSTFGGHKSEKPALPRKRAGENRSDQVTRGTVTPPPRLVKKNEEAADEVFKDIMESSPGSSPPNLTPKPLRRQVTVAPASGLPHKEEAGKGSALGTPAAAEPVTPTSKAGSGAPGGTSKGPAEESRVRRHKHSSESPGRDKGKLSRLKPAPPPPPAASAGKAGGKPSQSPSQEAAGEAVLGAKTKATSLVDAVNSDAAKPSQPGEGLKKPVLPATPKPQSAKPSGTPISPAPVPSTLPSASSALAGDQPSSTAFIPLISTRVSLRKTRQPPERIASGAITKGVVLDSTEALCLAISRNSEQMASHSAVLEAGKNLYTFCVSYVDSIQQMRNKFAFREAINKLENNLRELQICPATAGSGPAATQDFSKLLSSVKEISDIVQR

[6] = test system: PC3 cells; test: Cyclin D1 and cyclin D3 levels (Western blot); format: cell-based
[7] = molecular target: AKT1 (Homo sapiens, UniProt P31749); test: Kinase profiling, single-dose in vitro kinase assay (Caliper Life Sciences); details: read-out: Average % Inhibition AKT1
[8] = molecular target: SGK1 (Homo sapiens, UniProt O00141); test: as above; details: read-out: Average % Inhibition SGK1
Sequence of SGK1 (O00141 whole entry): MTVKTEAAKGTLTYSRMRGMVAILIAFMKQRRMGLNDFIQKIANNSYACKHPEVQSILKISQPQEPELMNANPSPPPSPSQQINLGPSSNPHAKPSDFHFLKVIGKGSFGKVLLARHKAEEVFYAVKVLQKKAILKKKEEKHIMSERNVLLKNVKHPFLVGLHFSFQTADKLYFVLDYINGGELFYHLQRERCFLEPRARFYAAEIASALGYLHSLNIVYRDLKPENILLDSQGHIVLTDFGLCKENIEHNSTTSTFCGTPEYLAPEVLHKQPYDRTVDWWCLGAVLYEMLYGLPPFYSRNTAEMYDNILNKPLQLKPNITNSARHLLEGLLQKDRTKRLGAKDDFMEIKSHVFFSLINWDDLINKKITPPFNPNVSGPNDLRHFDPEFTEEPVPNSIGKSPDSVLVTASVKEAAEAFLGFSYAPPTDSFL

[9] = molecular target: PKCζ (Homo sapiens, UniProt Q05513); test: as above; details: read-out: Average % Inhibition PKCζ
Sequence of PKCζ (Q05513 whole entry): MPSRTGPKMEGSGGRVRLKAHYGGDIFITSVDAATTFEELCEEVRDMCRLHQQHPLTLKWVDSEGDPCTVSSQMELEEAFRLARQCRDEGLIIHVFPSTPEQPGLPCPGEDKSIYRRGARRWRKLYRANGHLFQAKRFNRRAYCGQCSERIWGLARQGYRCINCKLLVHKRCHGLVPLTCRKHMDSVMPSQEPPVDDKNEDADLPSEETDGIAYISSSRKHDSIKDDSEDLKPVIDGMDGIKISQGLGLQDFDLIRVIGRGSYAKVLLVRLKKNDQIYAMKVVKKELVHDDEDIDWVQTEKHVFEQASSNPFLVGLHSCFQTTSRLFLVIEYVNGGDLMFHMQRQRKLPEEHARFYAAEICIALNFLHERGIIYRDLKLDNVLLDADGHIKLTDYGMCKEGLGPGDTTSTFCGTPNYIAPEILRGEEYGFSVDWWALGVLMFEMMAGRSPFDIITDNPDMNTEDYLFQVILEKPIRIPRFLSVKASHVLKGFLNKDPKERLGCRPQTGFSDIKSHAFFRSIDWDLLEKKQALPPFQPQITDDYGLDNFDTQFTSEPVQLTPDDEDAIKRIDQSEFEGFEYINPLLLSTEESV

[10] = molecular target: T2, recombinant human PKD3 (Homo sapiens, UniProt O94806); test: In vitro radiometric PKD kinase assay; format: biochemical; details: for IC50: radiometric kinase assay, mean ± S.E.M.
T2 construct: purchased Enzo Life Sciences
T2 sequence (O94806 1-890): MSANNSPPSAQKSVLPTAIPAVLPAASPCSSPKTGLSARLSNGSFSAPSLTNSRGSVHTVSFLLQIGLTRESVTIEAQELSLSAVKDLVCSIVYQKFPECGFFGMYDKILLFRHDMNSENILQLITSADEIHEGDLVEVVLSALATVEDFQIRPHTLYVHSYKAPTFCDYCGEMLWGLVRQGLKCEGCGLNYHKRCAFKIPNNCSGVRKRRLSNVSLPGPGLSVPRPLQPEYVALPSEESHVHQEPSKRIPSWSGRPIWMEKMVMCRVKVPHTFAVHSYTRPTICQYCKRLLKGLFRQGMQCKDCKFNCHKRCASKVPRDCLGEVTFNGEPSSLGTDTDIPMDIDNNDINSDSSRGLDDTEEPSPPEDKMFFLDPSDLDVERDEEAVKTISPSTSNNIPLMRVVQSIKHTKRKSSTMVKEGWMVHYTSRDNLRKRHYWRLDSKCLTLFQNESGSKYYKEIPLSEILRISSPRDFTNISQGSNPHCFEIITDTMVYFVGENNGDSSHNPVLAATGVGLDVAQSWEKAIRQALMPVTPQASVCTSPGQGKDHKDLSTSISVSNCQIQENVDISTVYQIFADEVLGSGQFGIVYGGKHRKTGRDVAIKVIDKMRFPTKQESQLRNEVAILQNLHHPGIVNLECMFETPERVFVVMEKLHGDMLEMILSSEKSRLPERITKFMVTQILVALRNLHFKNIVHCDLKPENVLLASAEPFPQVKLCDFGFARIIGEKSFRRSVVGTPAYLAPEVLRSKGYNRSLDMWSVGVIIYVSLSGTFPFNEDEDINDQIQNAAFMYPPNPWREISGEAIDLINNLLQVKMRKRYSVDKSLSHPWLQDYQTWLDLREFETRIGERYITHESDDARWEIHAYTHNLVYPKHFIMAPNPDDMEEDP
Description: In vitro radiometric kinase assays were conducted as previously described. Briefly, 1 μCi [γ-^32P] ATP (PerkinElmer Life Sciences), 70 μM ATP, 50 ng purified recombinant human PKD1 (Biomol International, Plymouth Meeting, PA), PKD2 (SignalChem, Richmond, BC, Canada), or CAMKIIα (Enzo Life Sciences) or 75 ng PKD3 (Enzo Life Sciences), and 2.5 μg syntide-2 (Sigma) in 50 μl kinase buffer containing 50 mM Tris-HCl, pH 7.5, 4 mM MgCl2, and 10 mM β-mercaptoethanol. For the CAMK assay, 0.5 mM CaCl2 and 30 ng/μl calmodulin were pre-incubated for 10 min on ice, and then added to each reaction mixture. The reaction was incubated at 30°C for 10 min, and 25 μl of the reaction mixture was then spotted onto Whatman P81 filter paper (Whatman Inc., Clifton, NJ). The filter papers were washed 3 times in 0.5% phosphoric acid, air-dried, and counted using a Beckman LS6500 multipurpose scintillation counter (Beckman).
The in vitro inhibitory activities of the novel compounds toward PKD were determined using radiometric PKD kinase activity assays. Recombinant human PKD1, -2, or -3 was incubated with the substrate, syntide-2, in the presence of 10 different concentrations of each compound. IC50 values were determined for each compound by plotting percent PKD activity versus compound concentration for each point.

[11] = test system: PC3 cells; test: Wound healing assay; format: cell-based; details: 25 μM, 24 h
Description: (§1) Wound-induced migration was measured as described previously. Briefly, PC3 or DU145 cells were grown to confluence in 6-well plates. Migration was initiated by scraping the monolayer with a pipette tip, creating a "wound." The indicated concentration of compound was added to the media, and the wound was imaged immediately under an inverted phase-contrast microscope with 10× objective. After 24 h, cells were fixed in methanol and stained with 1% crystal violet, and a final image was taken. The wound gap was measured, and % wound healing was calculated. The average % wound healing was determined based on at least 9 measurements of the wound gap.
(§2) The analogs inhibited wound healing in prostate cancer cells. DU145 cells (A) or PC3 cells (B) were grown to confluence in 6-well plates. The monolayer was wounded and imaged immediately. Cells were then treated with either vehicle (DMSO) or analogs at indicated concentration for 24 hours. Cells were then fixed and stained with 0.5% crystal violet. Percentage wound closure was calculated as an average of 9 determinations for each concentration/compound as described under "Methods." Data shown are the mean ± S.E.M. for three independent experiments. Statistical significance versus the DMSO control was determined by unpaired t-test in GraphPad Prism V. ns, not statistically significant; *, p < 0.05; **, p < 0.01; ***, p < 0.001.

[12] = test system: DU145 cells; test: Wound healing assay; format: cell-based; details: 25 μM, 24 h
Description: as §1, §2

T1 sequence (P05771 whole entry): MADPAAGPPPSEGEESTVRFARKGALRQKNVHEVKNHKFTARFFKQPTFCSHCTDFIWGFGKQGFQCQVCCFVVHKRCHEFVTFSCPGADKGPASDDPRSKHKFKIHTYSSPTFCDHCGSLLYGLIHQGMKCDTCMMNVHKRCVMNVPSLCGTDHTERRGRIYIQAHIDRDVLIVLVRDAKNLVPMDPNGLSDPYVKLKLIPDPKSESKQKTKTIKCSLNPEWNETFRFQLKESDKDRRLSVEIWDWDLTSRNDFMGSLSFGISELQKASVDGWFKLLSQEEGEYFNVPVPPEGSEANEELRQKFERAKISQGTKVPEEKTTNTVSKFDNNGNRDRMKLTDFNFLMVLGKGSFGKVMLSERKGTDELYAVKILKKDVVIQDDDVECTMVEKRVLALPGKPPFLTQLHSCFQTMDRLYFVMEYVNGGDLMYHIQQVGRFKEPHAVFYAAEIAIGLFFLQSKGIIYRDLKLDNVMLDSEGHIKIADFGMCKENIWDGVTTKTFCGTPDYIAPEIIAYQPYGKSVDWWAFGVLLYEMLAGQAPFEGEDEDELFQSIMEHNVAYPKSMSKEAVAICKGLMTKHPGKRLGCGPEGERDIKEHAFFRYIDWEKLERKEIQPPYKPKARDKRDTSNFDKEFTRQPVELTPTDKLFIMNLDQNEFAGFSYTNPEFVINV

In the case of `O=C1NCCCc2c1oc1ccc(O)cc21` [CID755673, 7-Hydroxy-2,3,4,5-tetrahydro-[1]benzoxolo[2,3-c]azepin-1-one], the “inhibition of PKCβI” value [1] is listed as “did not inhibit”, the inhibition at 10 µM [2] is listed as 7% and the inhibition at 10 µM [3] is listed as 18%. The inhibition at 10 µM [4] was 32%, the inhibition at 10 µM [5] was 8% and the “cyclin D1 and D3 levels” value ([6]; 48 hrs) was “induced cyclin D1 and D3 expression in a concentration-dependent manner”. The inhibition at 10 µM [7] was 3%, the inhibition at 10 µM [8] was 9% and the inhibition at 10 µM [9] was -4%.

For `O=C1NCCCSc2c1sc1ccc(O)cc21` [kb-NB165-92], the “fold greater inhibition of PKD3 than PKD1 or -2” value [10] was “about 2 fold”, the IC50 [10] was 0.0588 ± 0.0073 µM and the “change of potency for PKD3” value ([10]; versus kb-NB142-70) was “not altering potency”. The cell death ([6]; 10 μM) was “caused significant cell death”.

For `O=C1NCCSc2c1sc1ccc(O)cc21` [kb-NB142-70], the “fold stronger inhibition of PKD3 than CID755673” value [10] was “about 4 fold”, the IC50 [10] was 0.0532 ± 0.0035 µM and the wound closure [11] was 25-35%. The wound closure [12] was 25-35%.

For `COc1ccc2sc3c(c2c1)SCCNC3=O` [kb-NB165-09], the IC50 [10] was 0.0985 ± 0.0153 µM, the wound closure [11] was 25-35% and the wound closure [12] was 25-35%.

`COc1ccc2sc3c(c2c1)SCCCNC3=O` [kb-NB184-02] showed an IC50 [10] of 0.325 ± 0.039 µM.

In the case of `O=C1NCCSc2c1sc1ccc(O)c(I)c21` [kb-NB165-31], the IC50 [10] is reported as 0.0911 ± 0.0172 µM, the wound closure [11] is reported as 55-60% and the wound closure [12] is reported as 55-60%.
